Converted amounts (≈) assume the structure as drawn.
Experiments:
Influenza A HNI = assay: antiviral EC50 against Influenza A; format: cell-based; conditions: Influenza A virus, read-out: ECso
Norovirus = Norovirus tests; format: cell-based; conditions: one of the Norovirus tests; read-out: ECso
From the text: (§1) It is important to understand that mycophenolic acid's anti-viral effect is likely to require a small fraction (about 1-2% or less) of the clinical dose which is approved and commonly used for prevention of transplant rejection. For instance, Chan et al., 2013, p. […] For instance, in one of the Norovirus tests we document here, ECso of 0.151 mcg/mL was reported. Even less mycophenolic acid would be needed to treat viruses such as Influenza A HNI and RSV in which we report ECso <0.10 mcg/ml. Dramatically lower doses may suffice for mycophenolic acid. Therefore, it is not only possible to achieve adequate body levels of mycophenolic acid to treat these viruses clinically, but also a small fraction of the current clinical dose may be more than adequate. To et al, 2016 also presented data on page 1812 supporting these conclusions.

RSV = assay: antiviral EC50 against RSV; format: cell-based; conditions: human respiratory syncytial virus, read-out: ECso
From the text: as §1

virus = conditions: cited from earlier work
[1] = test system: seasonal influenza A(H3N2) virus; conditions: To et al. (2016); cited from earlier work
[2] = test system: Influenza A(H1N1) strain A/WSN/1933; conditions: Chan et al. (2013); cited from earlier work
[3] = test system: avian-origin influenza A (H7N9); conditions: To et al. (2016); cited from earlier work
[4] = test system: pandemic flu H/415, A/Hong Kong/415742/2009, A(HINI)pdm09; conditions: To et al. (2016); cited from earlier work
MERS coronavirus = MERS coronavirus patients; cited from earlier work

Structure (SMILES) | EC50 (Influenza A HNI) [µg/mL] | EC50 (Norovirus) [µg/mL] | EC50 (RSV) [µg/mL] | EC so (virus; Chan et al., 2013, p. 612) [µg/mL] | local concentrations at usual clinical doses, greater than needed (virus; usual clinical doses of mycophenolic acid, Chan et al., 2013) | effectiveness against virus [1] | effectiveness against virus [2] | effectiveness against virus [3] | effectiveness against virus [4] | mortality (MERS coronavirus)
COc1c(C)c2c(c(O)c1C/C=C(\C)CCC(=O)O)C(=O)OC2 [mycophenolic acid, 6-(4-hydroxy-6-methoxy-7-methyl-3-oxo-1,3-dihydroisobenzofuran-5-yl)-4-methyl-hex-4-enoic acid] | < 0.1 | 0.151 (≈ 0.471 µM) | < 0.1 | 0.17 | 60-300 × | effective | effectiveness | effective | effective | 
COc1c(C)c2c(c(O)c1C/C=C(\C)CCC(=O)OCCN1CCOCC1)C(=O)OC2 [mycophenolate mofetil, 2-morpholinoethyl ester of mycophenolic acid] |  |  |  |  |  |  |  |  |  | no mortality

Reference: US20250161262A1, “Pharmaceutical Compositions and Methods for Treating Covid” (priority 2022, published 2025)
